Source: patent publication US9073926B2, “Heterocyclic compounds containing a pyrrolopyridine or benzimidazole core” (Boehringer Ingelheim International GmbH, priority 2009, dated 2015)

Target: Human RSK2 (Homo sapiens (Human), UniProt P51812)
Assay: Human RSK2 Assay (Kinase Glo Plus, residual ATP)
Type: biochemical
Conditions: 0.75 nM His-RSK2, 0.75 μM ATP, 1.0 μM S6 Kinase/RSK Substrate Peptide 1
Method: Experimental Method A: Human RSK2 Assay
Compounds are assessed for their ability to inhibit the phosphorylation of a substrate peptide by RSK2.
Human RSK2 protein, purchased from Invitrogen, is used to measure kinase activity utilizing Kinase Glo Plus (Promega) a homogeneous assay technology, which uses a luciferin-luciferase based ATP detection reagent to quantify residual ATP. The assay is performed using 0.75 nM His-RSK2, 0.75 μM ATP and 1.0 μM S6 Kinase/RSK Substrate Peptide 1 (Upstate, catalog #12-124), in assay buffer consisting of 25 mM HEPES, pH 7.5, 10 mM MgCl2, 5 mM MnCl2, 50 mM KCl, 0.2% BSA, 0.01% CHAPS, 100 μM Na3VO4, 0.5 mM DTT, and 1% DMSO. Solutions of test compounds at various concentrations are prepared by 1:3 fold serial dilution of a 1 mM solution of compound in DMSO. The DMSO solutions are further diluted with assay buffer to a final concentration of DMSO of 5%.
The assay is performed in a 384 well, white, non-binding plate (Corning, catalogue #3574). Solutions of test compounds (10 μL) are transferred to a dry assay plate, followed by addition of 20 μL kinase and 20 μL ATP+Substrate Peptide 1 described above. The kinase reaction mixture is incubated for 90 minutes at 28° C. followed by addition of 30 μL of ATP detection reagent for 15 minutes at room temperature. The relative light unit (RLU) signal is measured on a LJL Analyst (Molecular Devices) in luminescence mode using 384 aperture. The RLU signals were converted to percent of control (POC) values using the formula: POC=100*(BCTRL−Signal)/(BCTRL−PCTRL), where Signal is the test well RLU signal, BCTRL is the average of background (negative control), which consists of ATP+peptide and compound buffer, well signals on the plate, and PCTRL is the average of positive control, which consists of kinase, ATP+peptide, and compound buffer, well signals on the plate. For concentration-responsive compounds, POC as a function of test compound concentration are fitted to a 4-parameter logistic equation of the form: Y=A+(B−A)/[1+(x/C)^D], where A, B, C, and D are fitted parameters (parameter B is fixed at zero POC), and x and y are the independent and dependent variables, respectively. The IC50 (50% inhibitory concentration) is determined as the inflection point parameter, C. Experimental Method B: Human RSK2 Trans-Reporter Assay

Human RSK2, sequence (P51812 whole entry): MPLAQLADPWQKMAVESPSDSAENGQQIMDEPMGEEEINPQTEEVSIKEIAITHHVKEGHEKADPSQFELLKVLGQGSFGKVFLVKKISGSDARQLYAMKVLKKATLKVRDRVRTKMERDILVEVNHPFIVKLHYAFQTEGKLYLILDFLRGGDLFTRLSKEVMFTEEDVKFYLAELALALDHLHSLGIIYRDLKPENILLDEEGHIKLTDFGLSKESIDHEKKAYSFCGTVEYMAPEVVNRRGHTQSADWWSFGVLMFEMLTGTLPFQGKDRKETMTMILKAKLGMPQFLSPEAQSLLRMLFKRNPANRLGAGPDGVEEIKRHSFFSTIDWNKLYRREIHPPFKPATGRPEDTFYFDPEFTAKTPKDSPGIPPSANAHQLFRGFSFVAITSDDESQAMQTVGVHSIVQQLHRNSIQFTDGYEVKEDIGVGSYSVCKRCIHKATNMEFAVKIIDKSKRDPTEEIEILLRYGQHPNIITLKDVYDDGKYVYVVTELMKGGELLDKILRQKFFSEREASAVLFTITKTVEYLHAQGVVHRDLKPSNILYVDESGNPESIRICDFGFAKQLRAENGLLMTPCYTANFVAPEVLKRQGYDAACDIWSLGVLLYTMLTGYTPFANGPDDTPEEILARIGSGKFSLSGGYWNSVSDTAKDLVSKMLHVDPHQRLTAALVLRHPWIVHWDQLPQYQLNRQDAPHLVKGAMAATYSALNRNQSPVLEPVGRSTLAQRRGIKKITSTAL

C[C@H]1CNC(=O)c2cc3ccc(C(=O)Nc4nc5ccccc5n4CCCN(C)C)nc3n21 [Example 75, (9S)-N-{1-[3-(dimethylamino)propyl]-1H-benzimidazol-2-yl}-9-methyl-6-oxo-6,7,8,9-tetrahydropyrido[3′,2′:4,5]pyrrolo[1,2-a]pyrazine-2-carboxamide]
IC50: 265 nM

O=C(Nc1cccc(F)c1)c1ccc2nc3n(c2c1)CCCNC3=O [Example 8, N-(3-fluorophenyl)-1-oxo-2,3,4,5-tetrahydro-1H-[1,4]diazepino[1,2-a]benzimidazole-8-carboxamide]
IC50: 960 nM

C[C@@H]1NC(=O)c2cc3ccc(C(=O)Nc4cnn(Cc5ccccc5)c4)nc3n2[C@H]1C (relative stereo) [Example 62, N-(1-benzyl-1H-pyrazol-4-yl)-trans-8,9-dimethyl-6-oxo-6,7,8,9-tetrahydropyrido[3′,2′:4,5]pyrrolo[1,2-a]pyrazine-2-carboxamide]
IC50: 3 nM

Cn1cc(NC(=O)c2ccc3nc4n(c3c2)CCCNC4=O)cn1 [Example 13, N-(1-methyl-1H-pyrazol-4-yl)-1-oxo-2,3,4,5-tetrahydro-1H-[1,4]diazepino[1,2-a]benzimidazole-8-carboxamide]
IC50: 320 nM

Cc1cc(NC(=O)c2ccc3nc4n(c3c2)CCCNC4=O)no1 [Example 20, N-(5-methyl-1,2-oxazol-3-yl)-1-oxo-2,3,4,5-tetrahydro-1H-[1,4]diazepino[1,2-a]benzimidazole-8-carboxamide]
IC50: 1550 nM

O=C(Nc1cnc2c(cnn2C2CCOCC2)c1)c1ccc2cc3n(c2n1)CCCNC3=O [Example 33, 6-oxo-N-[1-(tetrahydro-2H-pyran-4-yl)-1H-pyrazolo[3,4-b]pyridin-5-yl]-7,8,9,10-tetrahydro-6H-pyrido[3′,2′:4,5]pyrrolo[1,2-a][1,4]diazepine-2-carboxamide]
IC50: 20 nM

CCn1c(NC(=O)c2ccc3nc4n(c3c2)CCCNC4=O)nc2cccnc21 [Example 17, N-(3-ethyl-3H-imidazol[4,5-b]pyridin-2-yl)-1-oxo-2,3,4,5-tetrahydro-1H-[1,4]diazepino[1,2-a]benzimidazole-8-carboxamide]
IC50: 23 nM

CC1CCNC(=O)c2cc3ccc(C(=O)Nc4cc(Cc5ccccc5)on4)nc3n21 (stereo not drawn) [Example 94, N-(5-benzyl-1,2-oxazol-3-yl)-10-methyl-6-oxo-7,8,9,10-tetrahydro-6H-pyrido[3′,2′:4,5]pyrrolo[1,2-a][1,4]diazepine-2-carboxamide]
IC50: 3.3 nM

Cc1cc(NC(=O)c2ccc3cc4n(c3n2)CCCNC4=O)no1 [Example 80, N-(5-methyl-1,2-oxazol-3-yl)-6-oxo-7,8,9,10-tetrahydro-6H-pyrido[3′,2′:4,5]pyrrolo[1,2-a][1,4]diazepine-2-carboxamide]
IC50: 19 nM

CCn1c(NC(=O)c2ccc3cc4n(c3n2)[C@H](C)CNC4=O)nc2ccccc21 [Example 72, (9R)-N-(1-ethyl-1H-benzimidazol-2-yl)-9-methyl-6-oxo-6,7,8,9-tetrahydropyrido[3′,2′:4,5]pyrrolo[1,2-a]pyrazine-2-carboxamide]
IC50: 26.5 nM

Cn1c(NC(=O)c2ccc3cc4n(c3n2)CCCNC4=O)nc2ccccc21 [Example 51, N-(1-methyl-1H-benzimidazol-2-yl)-6-oxo-7,8,9,10-tetrahydro-6H-pyrido[3′,2′:4,5]pyrrolo[1,2-a][1,4]diazepine-2-carboxamide]
IC50: 365 nM

CC1CCNC(=O)c2cc3ccc(C(=O)Nc4cnc5c(cnn5C5CCOCC5)c4)nc3n21 (stereo not drawn) [Example 32, 10-methyl-6-oxo-N-[1-(tetrahydro-2H-pyran-4-yl)-1H-pyrazolo[3,4-b]pyridin-5-yl]-7,8,9,10-tetrahydro-6H-pyrido[3′,2′:4,5]pyrrolo[1,2-a][1,4]diazepine-2-carboxamide]
IC50: 2.3 nM

CC(C)n1c(NC(=O)c2ccc3nc4n(c3c2)C(C)(C)CCNC4=O)nc2ccccc21 [Example 18, 5,5-dimethyl-1-oxo-N-[1-(propan-2-yl)-1H-benzimidazol-2-yl]-2,3,4,5-tetrahydro-1H-[1,4]diazepino[1,2-a]benzimidazole-8-carboxamide]
IC50: 4.7 nM

CC(C)n1c(NC(=O)c2ccc3cc4n(c3n2)CCCNC4=O)nc2ccccc21 [Example 53, 6-oxo-N-[1-(propan-2-yl)-1H-benzimidazol-2-yl]-7,8,9,10-tetrahydro-6H-pyrido[3′,2′:4,5]pyrrolo[1,2-a][1,4]diazepine-2-carboxamide]
IC50: 630 nM

CN(C)CCCn1c(NC(=O)c2ccc3nc4n(c3c2)CCCNC4=O)nc2ccccc21 [Example 16, N-{1-[3-(dimethylamino)propyl]-1H-benzimidazol-2-yl}-1-oxo-2,3,4,5-tetrahydro-1H-[1,4]diazepino[1,2-a]benzimidazole-8-carboxamide]
IC50: 92 nM

CCn1c(NC(=O)c2ccc3cc4n(c3n2)[C@@H](C)CNC4=O)nc2ccccc21 [Example 71, (9S)-N-(1-ethyl-1H-benzimidazol-2-yl)-9-methyl-6-oxo-6,7,8,9-tetrahydropyrido[3′,2′:4,5]pyrrolo[1,2-a]pyrazine-2-carboxamide]
IC50: 54.5 nM

Cc1ccnc(NC(=O)c2ccc3cc4n(c3n2)CCCNC4=O)c1 [Example 38, N-(4-methylpyridin-2-yl)-6-oxo-7,8,9,10-tetrahydro-6H-pyrido[3′,2′:4,5]pyrrolo[1,2-a][1,4]diazepine-2-carboxamide]
IC50: 3.8 nM

C[C@H]1CNC(=O)c2cc3ccc(C(=O)Nc4cc(Cc5ccccc5)on4)nc3n21 [Example 97, (9S)-N-(5-benzyl-1,2-oxazol-3-yl)-9-methyl-6-oxo-6,7,8,9-tetrahydropyrido[3′,2′:4,5]pyrrolo[1,2-a]pyrazine-2-carboxamide]
IC50: 490 nM

CC1CCNC(=O)c2cc3ccc(C(=O)Nc4cnn(Cc5ccncc5)c4)nc3n21 (stereo not drawn) [Example 68, 10-methyl-6-oxo-N-[1-(pyridin-4-ylmethyl)-1H-pyrazol-4-yl]-7,8,9,10-tetrahydro-6H-pyrido[3′,2′:4,5]pyrrolo[1,2-a][1,4]diazepine-2-carboxamide]
IC50: 0.27 nM

Cn1cc(NC(=O)c2ccc3cc4n(c3n2)CCCNC4=O)nc1C(=O)NC1CCCC1 [Example 104, N-[2-(cyclopentylcarbamoyl)-1-methyl-1H-imidazol-4-yl]-6-oxo-7,8,9,10-tetrahydro-6H-pyrido[3′,2′:4,5]pyrrolo[1,2-a][1,4]diazepine-2-carboxamide]
IC50: 1.6 nM

O=C(Nc1cnn(Cc2ccccc2)c1)c1ccc2cc3n(c2n1)CCCNC3=O [Example 47, N-(1-benzyl-1H-pyrazol-4-yl)-6-oxo-7,8,9,10-tetrahydro-6H-pyrido[3′,2′:4,5]pyrrolo[1,2-a][1,4]diazepine-2-carboxamide]
IC50: 3.8 nM

O=C(Nc1cccnc1)c1ccc2cc3n(c2n1)CCCNC3=O [Example 27, 6-oxo-N-(pyridin-3-yl)-7,8,9,10-tetrahydro-6H-pyrido[3′,2′:4,5]pyrrolo[1,2-a][1,4]diazepine-2-carboxamide]
IC50: 37 nM

CC1(C)CNC(=O)c2cc3ccc(C(=O)Nc4cnn(Cc5ccccc5)c4)nc3n2C1 [Example 48, N-(1-benzyl-1H-pyrazol-4-yl)-9,9-dimethyl-6-oxo-7,8,9,10-tetrahydro-6H-pyrido[3′,2′:4,5]pyrrolo[1,2-a][1,4]diazepine-2-carboxamide]
IC50: 12 nM

CC(C)n1ncc2cc(NC(=O)c3ccc4cc5n(c4n3)[C@@H](C)CNC5=O)cnc21 [Example 63, (9S)-9-methyl-6-oxo-N-[1-(propan-2-yl)-1H-pyrazolo[3,4-b]pyridin-5-yl]-6,7,8,9-tetrahydropyrido[3′,2′:4,5]pyrrolo[1,2-a]pyrazine-2-carboxamide]
IC50: 84 nM

CC1(C)CNC(=O)c2cc3ccc(C(=O)Nc4cnn(C(C)(C)C)c4)nc3n2C1 [Example 45, N-(1-tert-butyl-1H-pyrazol-4-yl)-9,9-dimethyl-6-oxo-7,8,9,10-tetrahydro-6H-pyrido[3′,2′:4,5]pyrrolo[1,2-a][1,4]diazepine-2-carboxamide]
IC50: 50 nM

Cn1c(NC(=O)c2ccc3nc4n(c3c2)CCCNC4=O)nc2ccccc21 [Example 2, N-(1-methyl-1H-benzimidazol-2-yl)-1-oxo-2,3,4,5-tetrahydro-1H-[1,4]diazepino[1,2-a]benzimidazole-8-carboxamide]
IC50: 35 nM

CC(C)(C)n1cc(NC(=O)c2ccc3cc4n(c3n2)CCCNC4=O)cn1 [Example 44, N-(1-tert-butyl-1H-pyrazol-4-yl)-6-oxo-7,8,9,10-tetrahydro-6H-pyrido[3′,2′:4,5]pyrrolo[1,2-a][1,4]diazepine-2-carboxamide]
IC50: 9.7 nM
